{"source": "paper PMC10707934", "about": "“Design and Synthesis of Novel α-Methylchalcone Derivatives, Anti-Cervical Cancer Activity, and Reversal of Drug Resistance in HeLa/DDP Cells” (Molecules, 2023)", "key": {"[1]": {"test_system": "α-/β-tubulins in HeLa cells", "assay": "Western blot of polymerized and dissociated α-/β-tubulins, HeLa", "type": "cell-based, human", "details": "24 h, versus control", "experimental": "(§1) HeLa cells were cultured in 60 mm Petri dishes at a density of 1.0 × 10^6 cells per dish and treated with 0.1% DMSO (vehicle), positive control chalcone (20 μM), and different concentrations of compound 3k (2.5, 5, and 10 μM), respectively. Following a 24 and 48 h incubation period, the cells were harvested via centrifugation and subsequently washed twice with PBS that had been chilled to 0 °C. Next, the cells were homogenized using RIPA lysis buffer (Solarbio, Beijing, China) and supplemented with 1% PMSF (MP Biomedicals, 0754-25G, CAS:329-98-6, Santa Ana, CA, USA) and 1% mixed phosphatase inhibitor (Solarbio, Beijing, China). The resulting lysates were then incubated on ice for 30 min, intermittently vortexed every 5 min, and subsequently centrifuged at 12,000 rpm for 20 min to collect the supernatants.\n(§2) Subsequently, the protein concentrations were determined utilizing a BCA Protein Assay Kit (Solarbio, China). An equivalent quantity of the proteins (12 μg) was fractionated via 8–12% sodium dodecyl sulfate–polyacrylamide gel electrophoresis (SDS-PAGE) and transferred onto nitrocellulose membranes (Amersham Biosciences, Amersham, UK). Following this, the membranes were obstructed with 5% nonfat dried milk in TBS containing 1% Tween-20 for a duration of 2 h at ambient temperature and were subjected to overnight incubation with specific primary antibodies (CST, Boston, MA, USA) at 4 °C. Following three washes in TBST, the membranes were subjected to incubation with the suitable HRP-conjugated secondary antibodies at ambient temperature for a duration of 2 h. The blots were subsequently visualized using enhanced chemiluminescence (Biosharp, Shanghai, China) and detected utilizing a PE 0723 imager (ProteinSimple, Silicon Valley, CA, USA). Each experiment was conducted in triplicate at minimum and analyzed employing Image J software (V1.8.0.112). β-actin(ab198991) rabbit mAb, goat anti-rabbit IgG (H + L) HRP—#S0001 (Affinity). Bax (ab289364), Bcl-2 (ab218123), MDR1/ABCB1 (E1Y7B) rabbit mAb #13342 (CST).\n(§3) Polymerized and free microtubule proteins were extracted using the methods described in references, respectively. Following drug intervention, the cells were subjected to two washes with preheated microtubule protein buffer MTSB at 37 °C. Subsequently, 70 μL of MTSB was added, and the cells were lysed for 10 min at 37 °C in a constant temperature chamber shielded from light. The cells were then scraped with a spatula and centrifuged at 14,000 r/min for 10 min at room temperature. The resulting supernatant, which represented the free state microtubule protein suspension, was subsequently removed. The remaining precipitate was treated with RIPA lysis solution, followed by lysis on ice for a duration of 30 min. Subsequently, centrifugation was performed at a temperature of 4 °C and a speed of 12,000 revolutions per minute for a duration of 20 min. The resulting supernatant was collected as a suspension of polymerized microtubule protein. The Western blotting procedure was the same as in Section 3.3.4. α-Tubulin (DM1A) Mouse mAb#3873 (CST), β-Tubulin (D2N5G) Rabbit mAb #15115 (CST), CoraLite488-conjugated Goat Anti-Mouse lgG(H+L) (Proteintech); CoraLite488-conjugated Goat Anti-Rabbit lgG(H+L) (Proteintech); β-actin(ab198991) rabbit mAb, Goat Anti-Mouse IgG H&L (HRP) (ab6789); Goat anti-Rabbit IgG (H+L) HRP—#S0001 (Affinity)."}, "[2]": {"test_system": "α-/β-tubulins in HeLa/DDP cells", "assay": "Western blot of polymerized and dissociated α-/β-tubulins, HeLa/DDP", "type": "cell-based, human", "details": "24 h, versus control", "experimental": "as §1, §2, §3"}}, "data": [{"compound": "COc1cc2c(c(OC)c1OC)-c1ccc(OC)c(=O)cc1[C@@H](NC(C)=O)CC2", "note": "[colchicine]", "values": [{"measurement": "expression of dissociated state α and β microtubule proteins", "setting": "[1]; 3k 4 μM, colchicine 2 μM, paclitaxel 2.0 μM", "value": "significantly increased"}, {"measurement": "expression of α and β microtubule proteins in the polymerized state", "setting": "[1]; 3k 2 and 4 μM, colchicine and paclitaxel 2.0 μM", "value": "decrease"}, {"measurement": "expression of dissociated state α and β microtubule proteins", "setting": "[2]; 3k 4 μM, colchicine and paclitaxel 2.0 μM", "value": "increase"}, {"measurement": "expression of polymerized state α and β microtubule proteins", "setting": "[2]; positive drugs 2.0 μM", "value": "significant decrease"}]}]}
